For data set [1], the system named is dog. The note with it: Chronic toxicity; beagle; Oral; Gavage/Intubation; dose end: 52 week; group: systemic; systemic / in life observation / body weight / body weight gain + systemic / in life observation / clinical signs / emesis + systemic / in ….
Data set [2] relates to mouse. To be noted: Combined chronic toxicity/carcinogenicity; b6c3f1; Oral; Feed; dose end: 24 month; group: systemic; systemic / pathology microscopic / liver / accentuated lobular pattern.
For data set [3], the system named is rat. To be noted: Subchronic oral toxicity in rodents, fischer, Feed, dose end: 90 day, group: systemic.
Data set [4] has as its system mouse. The note with it: Carcinogenicity, b6c3f1, Oral, Feed, dose end: 2 year, group: systemic.
Data set [5] deals with rat. The note with it: Multigenerational reproductive toxicity study, sprague dawley, Oral, Feed, dose end: 2 generation.
Data set [6] relates to dog. The note with it: Subchronic oral toxicity in nonrodent, beagle, Capsule, dose end: 13 week, group: systemic.
The subject of data set [7] is dog. To be noted: Chronic toxicity, beagle, Oral, Capsule, dose end: 53 week, group: systemic.
Data set [8] deals with rat. The note with it: Prenatal developmental toxicity study, sprague dawley, Oral, Gavage/Intubation, dose end: 15 GD, group: maternal.
In data set [9] the test system is rat. To be noted: Subchronic oral toxicity in rodents, fischer, Feed, dose end: 3 month, group: systemic, systemic / organ weight / liver / absolute + systemic / organ weight / liver / relative to body weight + systemic / pathology microscopic / ….
For data set [10], the system named is rat. To be noted: Subchronic oral toxicity in rodents, sprague dawley, Feed, dose end: 90 day, group: systemic, systemic / in life observation / clinical signs / altered breathing rate + systemic / in life observation / food consumption / food ….
The test system of data set [11] is dog. The note with it: Subchronic oral toxicity in nonrodent, beagle, Feed, dose end: 90 day, group: systemic, systemic / hematology / hematocrit (hct) / hematocrit (hct) + systemic / hematology / hemoglobin (hgb) / hemoglobin (hgb) + systemic / ….
Data set [12] concerns mouse. To be noted: Carcinogenicity; other; Oral; Gavage/Intubation; dose end: 6 month; group: systemic; systemic / in life observation / clinical signs / abnormal gait + systemic / in life observation / clinical signs / ataxia + systemic / in ….
The test system of data set [13] is mouse. To be noted: Carcinogenicity, other, Oral, Gavage/Intubation, dose end: 6 month, group: systemic.
The test system of data set [14] is mouse. To be noted: Carcinogenicity, cd1, Oral, Gavage/Intubation, dose end: 16 PND, group: systemic.
Data set [15] deals with mouse. To be noted: Carcinogenicity, other, Oral, Gavage/Intubation, dose end: 6 month, group: systemic. This is another data set of the same source.
Data set [16] concerns rat. To be noted: Combined chronic toxicity/carcinogenicity, wistar, Oral, Feed, dose end: 24 month, group: systemic.
Data set [17] deals with mouse. The note with it: Subchronic inhalation toxicity, b6c3f1, Whole-Body, dose end: 14 week, group: systemic.
Data set [18] deals with rat. The note with it: Subchronic inhalation toxicity, fischer, Whole-Body, dose end: 14 week, group: systemic.
Data set [19] concerns rat. The note with it: Carcinogenicity, fischer, Inhalation, Whole-Body, dose end: 105 week, group: systemic.
The test system of data set [20] is mouse. The note with it: Carcinogenicity, b6c3f1, Inhalation, Whole-Body, dose end: 105 week, group: systemic.
Where [21] appears, read: systemic / in life observation / body weight / body weight + systemic / in life observation / body weight / body weight gain.
Setting [22] is: systemic / in life observation / body weight / body weight + systemic / in life observation / body weight / body weight gain + systemic / in….
[23] abbreviates: systemic / organ weight / liver / relative to body weight + systemic / organ weight / kidney / relative to body weight.
[24] abbreviates: systemic / pathology microscopic / liver / hyperplasia + systemic / organ weight / liver / absolute + systemic / organ weight / liver / ….
Where [25] appears, read: group: offspring, systemic / in life observation / body weight / offspring (pup) weight.
[26] abbreviates: group: offspring, systemic / in life observation / body weight / offspring (pup) weight + developmental / offspring survival late / viability index / ….
The mark [27] stands for this setting: group: parental, systemic / organ weight / liver / absolute + systemic / organ weight / liver / relative to body weight + systemic / pathology microscopic / ….
Setting [28] is: group: reproductive, reproductive / offspring survival early / litter size / litter size.
Setting [29] is: systemic / pathology microscopic / spleen / pigmentation.
[30] abbreviates: systemic / pathology microscopic / spleen / pigmentation + systemic / in life observation / clinical signs / emesis + systemic / pathology ….
The mark [31] stands for this setting: systemic / pathology microscopic / liver / pigmentation + systemic / clinical chemistry / alanine aminotransferase (alt/sgpt) / alanine ….
Setting [32] is: systemic / clinical chemistry / alanine aminotransferase (alt/sgpt) / alanine aminotransferase (alt/sgpt) + systemic / clinical chemistry / ….
The mark [33] stands for this setting: systemic / clinical chemistry / cholesterol / cholesterol + systemic / clinical chemistry / cholesterol / cholesterol, direct ldl + systemic….
Where [34] appears, read: systemic / in life observation / body weight / body weight gain + systemic / in life observation / clinical signs / dehydration + systemic….
Where [35] appears, read: systemic / in life observation / clinical signs / body temperature + systemic / in life observation / clinical signs / dehydration + ….
Setting [36] is: systemic / pathology microscopic / liver / hypertrophy.
The mark [37] stands for this setting: systemic / organ weight / heart / absolute.
Where [38] appears, read: systemic / organ weight / heart / absolute + systemic / pathology microscopic / nose / degeneration + systemic / pathology microscopic / ….
Where [39] appears, read: systemic / pathology microscopic / nose / hyaline droplet + systemic / pathology microscopic / nose / degeneration.
The mark [40] stands for this setting: systemic / in life observation / body weight / body weight + systemic / in life observation / body weight / body weight gain + systemic / ….
The mark [41] stands for this setting: systemic / pathology microscopic / nose / metaplasia.
Setting [42] is: systemic / pathology microscopic / kidney / hyperplasia + systemic / pathology microscopic / nose / atrophy + systemic / pathology ….
Setting [43] is: systemic / pathology microscopic / nose / atrophy + systemic / pathology microscopic / nose / hyperplasia + systemic / pathology microscopic….
[44] abbreviates: systemic / in life observation / body weight / body weight + systemic / pathology microscopic / eye / degeneration + systemic / pathology ….
[45] abbreviates: systemic / in life observation / body weight / body weight + systemic / pathology microscopic / nose / degeneration + systemic / pathology ….

For the molecule `Oc1ccccc1-c1ccccc1` [2-Phenylphenol], the LEL stood at 300 mg/kg/day with dog [1], 250 mg/kg/day in the data set with mouse [2] and 377 mg/kg/day with rat [3] (setting [23]). Also, the values for the lowest observed adverse effect level (LOAEL) in the data set on dog [1], in the data set on mouse [2] and in the data set on rat [3] (setting [21]) were 300 mg/kg/day, 250 mg/kg/day and 763 mg/kg/day, respectively. The NEL in the data set on dog [1] is 100 mg/kg/day; with mouse [2], < 250 mg/kg/day; in the data set with rat [3] (setting [23]), < 377 mg/kg/day. Moreover, the NOAEL is 100 mg/kg/day with dog [1], < 250 mg/kg/day in the data set with mouse [2] and 377 mg/kg/day in the data set on rat [3] (setting [22]).

Turning to `CCCCN(CC)c1c([N+](=O)[O-])cc(C(F)(F)F)cc1[N+](=O)[O-]` [Benfluralin], the LOAEL in the data set on mouse [4] (systemic / pathology microscopic / liver / hyperplasia) was 185 mg/kg/day; in the data set on rat [5] (setting [25]) it was 74.4 mg/kg/day; with rat [5] (setting [27]), 68.1 mg/kg/day; in the data set on rat [5] (setting [28]), 401 mg/kg/day; with dog [6] (setting [29]), 25 mg/kg/day; in the data set on dog [7] (systemic / pathology microscopic / liver / pigmentation) it was 25 mg/kg/day. For the same molecule, the figures for the lowest-observed-adverse-effect level (LOAEL) with rat [8] (setting [21]) and in the data set on rat [9] were 1000 mg/kg/day and > 522 mg/kg/day, respectively. Further, the LEL in the data set with mouse [4] (setting [24]) was 185 mg/kg/day; in the data set with rat [5] (setting [25]) it was 74.4 mg/kg/day; with rat [5] (setting [27]), 68.1 mg/kg/day; in the data set with rat [5] (setting [28]), 401 mg/kg/day; in the data set with dog [6] (setting [29]), 25 mg/kg/day; in the data set with dog [7] (setting [31]), 25 mg/kg/day. Further, the LEL with rat [8] (systemic / in life observation / body weight / body weight + systemic / in life observation / food consumption / food consumption) amounted to 475 mg/kg/day; in the data set on rat [9] it was 16.8 mg/kg/day. The NEL with mouse [4] (setting [24]) came to 36.4 mg/kg/day; in the data set on rat [5] (setting [26]) it was 7.3 mg/kg/day; with rat [5] (setting [27]) it was 7.2 mg/kg/day; in the data set on rat [5] (setting [28]), 74.4 mg/kg/day; in the data set on dog [6] (setting [30]), 5 mg/kg/day; in the data set with dog [7] (setting [31]), 5 mg/kg/day. Further, the NEL with rat [8] (setting [22]) came to 225 mg/kg/day; in the data set with rat [9] it was 3.23 mg/kg/day. Also, the NOAEL in the data set on mouse [4] (setting [24]) turned out to be 36.4 mg/kg/day; with rat [5] (setting [26]), 7.3 mg/kg/day; with rat [5] (setting [27]), 7.2 mg/kg/day; in the data set with rat [5] (setting [28]) it was 74.4 mg/kg/day; in the data set with dog [6] (setting [30]) it was 5 mg/kg/day; in the data set on dog [7] (setting [31]) it was 5 mg/kg/day. In addition, the no observed adverse effect level (NOAEL) was 475 mg/kg/day with rat [8] (setting [22]) and ≥ 522 mg/kg/day with rat [9].

Turning to `O.O.O.O.O.O.O.O.O.O.[Na+].[Na+].[O-]B1OB2OB([O-])OB(O1)O2` [Borax], in the data set with rat [10], the LEL came out at 770 mg/kg/day, the LOAEL turned out to be 770 mg/kg/day, the NEL was determined as 232 mg/kg/day and the no-observed-adverse-effect level (NOAEL) is 232 mg/kg/day. Besides, in the data set with dog [11], the LEL was found to be 192 mg/kg/day, the lowest observed adverse effect level (LOAEL) worked out at 192 mg/kg/day, the NEL was determined as 22 mg/kg/day and the NOAEL was determined as 22 mg/kg/day.

Turning to `CCOC(=O)C(C)(C)Oc1ccc(Cl)cc1` [Clofibrate], the LEL with mouse [12] amounted to 200 mg/kg/day; with mouse [13] (setting [33]), 50 mg/kg/day; in the data set on mouse [14] (systemic / in life observation / clinical signs / palpable mass) it was 250 mg/kg/day; in the data set on mouse [15] (setting [36]), 50 mg/kg/day. Besides, the lowest observed adverse effect level (LOAEL) is > 500 mg/kg/day in the data set on mouse [12], > 250 mg/kg/day in the data set with mouse [13] (setting [32]), > 500 mg/kg/day in the data set with mouse [14] (setting [34]) and > 650 mg/kg/day in the data set with mouse [15] (setting [35]). Further, the NEL in the data set on mouse [12] was 50 mg/kg/day; in the data set on mouse [13] (setting [33]) it was < 50 mg/kg/day; with mouse [14] (setting [34]), 100 mg/kg/day; with mouse [15] (setting [36]), < 50 mg/kg/day. Also, the no-observed-adverse-effect level (NOAEL) is ≥ 500 mg/kg/day in the data set on mouse [12], ≥ 250 mg/kg/day with mouse [13] (setting [32]), ≥ 500 mg/kg/day in the data set on mouse [14] (setting [34]) and ≥ 650 mg/kg/day in the data set with mouse [15] (setting [35]).

Take `NCCO.O=C(Nc1ccc([N+](=O)[O-])cc1Cl)c1cc(Cl)ccc1O` [Clonitralid]: the LOAEL in the data set with rat [16] (systemic / in life observation / body weight / body weight gain) is 410 mg/kg/day. In addition, the NOAEL in the data set with rat [16] (systemic / in life observation / body weight / body weight gain + systemic / clinical chemistry / alanine aminotransferase (alt/sgpt) / …) amounted to 100 mg/kg/day. Moreover, in the data set with rat [16] (setting [37]), the LEL came out at 20 mg/kg/day and the NEL was < 20 mg/kg/day.

Regarding `OCc1ccco1` [Furfuryl alcohol], the LOAEL in the data set on mouse [17] (setting [38]), in the data set with rat [18] (setting [40]), with rat [19] (setting [42]) and with mouse [20] (setting [44]) was > 32 ppm in each case. For the same molecule, the no observed adverse effect level (NOAEL) in the data set on mouse [17] (setting [38]), with rat [18] (setting [40]), with rat [19] (setting [42]) and in the data set on mouse [20] (setting [44]) was ≥ 32 ppm each time. Further, the LEL in the data set on mouse [17] (setting [39]), in the data set on rat [18] (setting [41]), in the data set on rat [19] (setting [43]) and in the data set with mouse [20] (setting [45]) was 2 ppm each time. Further, the NEL with mouse [17] (setting [39]), in the data set on rat [18] (setting [41]), in the data set on rat [19] (setting [43]) and in the data set with mouse [20] (setting [45]) was < 2 ppm throughout.

In general, LOAEL refers to the lowest dose or exposure tested at which an adverse effect was seen. The term NOAEL denotes the highest tested level that showed no adverse finding.

For the origin of these results see EPA's ToxRefDB 2.
